Experimental data published in PubChem BioAssay (NCI).
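A five-concentration, 48-hour dose response in 96-well plates underlies each endpoint, interpolated linearly between surrounding concentrations. GI50: concentration for 50% inhibition of growth. The concentration for full growth arrest is given as TGI.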 *1 amine or outer side, *2 acyl side, *3 side chain or, on linkers, in order; H or OH if unused. Where a SMILES comes first, the peptide text is derived from it. [ ]: non-standard residue; d: D form. The star is where a group is joined. X31 = CC(=O)N(C)SCC(N[*:1])C(=O)[*:2]; Fmoc = O=C(OCC1c2ccccc2-c2ccccc21)*; For = O=C*

Legend:
Assay in all cases: NCI anticancer screen, dose series, 48 h
COLO 205 colon = test system: COLO 205 colon
EKVX NSCLC = test system: EKVX NSCLC
HCT-15 colon = test system: HCT-15 colon
LOX IMVI melanoma = test system: LOX IMVI melanoma
MDA-MB-435 = test system: MDA-MB-435
NCI/ADR-RES ovarian = test system: NCI/ADR-RES ovarian
OVCAR-4 ovarian = test system: OVCAR-4 ovarian
RXF 393 renal = test system: RXF 393 renal
SF-539 CNS = test system: SF-539 CNS
SK-MEL-2 melanoma = test system: SK-MEL-2 melanoma
SK-MEL-5 melanoma = test system: SK-MEL-5 melanoma
SK-OV-3 ovarian = test system: SK-OV-3 ovarian
SR leukemia = test system: SR leukemia
TK-10 renal = test system: TK-10 renal

SMILES	TGI (COLO 205 colon)	TGI (EKVX NSCLC)	TGI (HCT-15 colon)	TGI (LOX IMVI melanoma)	TGI (MDA-MB-435)	TGI (NCI/ADR-RES ovarian)	TGI (OVCAR-4 ovarian)	TGI (RXF 393 renal)	TGI (SF-539 CNS)	TGI (SK-MEL-2 melanoma)	TGI (SK-MEL-5 melanoma)	TGI (SK-OV-3 ovarian)	TGI (SR leukemia)	TGI (TK-10 renal)	GI50 (LOX IMVI melanoma)
NCCC1([N+](=O)[O-])CCNCC1	> 100 µM	> 100 µM	> 100 µM	> 100 µM	> 100 µM	> 100 µM	> 100 µM	> 100 µM	> 100 µM	> 100 µM	> 100 µM	> 100 µM	> 100 µM	> 100 µM	
Cc1ccc(N2C(=O)C(=O)N(/N=C3\C(=O)Nc4ccccc43)C2=S)cc1	> 100 µM	> 100 µM	> 100 µM	> 100 µM	> 100 µM	> 100 µM		> 100 µM	> 100 µM	> 100 µM	> 100 µM	> 100 µM	> 100 µM	> 100 µM	
CCN1C(=O)CS/C1=N\NC(=O)CSc1nc2ccccc2c(=O)n1CC	> 100 µM	> 100 µM	> 100 µM	> 100 µM	> 100 µM	> 100 µM	> 100 µM	> 100 µM	> 100 µM	> 100 µM	> 100 µM	> 100 µM	> 100 µM	> 100 µM	
CC(=O)N(C)SCC(NC(=O)C(Cc1ccccc1)NC(=O)OCC1c2ccccc2-c2ccccc21)C(=O)NC(Cc1ccccc1)C(=O)NC(Cc1cn(C=O)c2ccccc12)C(=O)NC(CCCCNC(=O)OCC1c2ccccc2-c2ccccc21)C(=O)NC(C(=O)NC(CSN(C)C(C)=O)C(=O)NC(C(N)=O)C(C)O)C(C)O (stereo unspecified) (Fmoc-F[X31]FW(For)K(Fmoc)T[X31]T-NH2; configuration not given here)	> 100 µM	> 100 µM	> 100 µM	> 100 µM	> 100 µM	> 100 µM	> 100 µM	72.3 µM	> 100 µM	> 100 µM	> 100 µM	> 100 µM	> 100 µM	67.5 µM	
C=C(CC)C[C@@H]1C[C@]2(C(=O)OC)c3[nH]c4ccccc4c3CCN2C1=O	> 100 µM	85.5 µM	34.5 µM	33.5 µM	43.7 µM	51.1 µM	> 100 µM	27.7 µM	30.9 µM	33.1 µM	31.3 µM	63.9 µM	> 100 µM	> 100 µM	
CC(=O)NC(CO)C(=O)NC(Cc1ccc(O)cc1)C(=O)NCC(N)=O (stereo not drawn) (Ac-Ser-Tyr-Gly-NH2; configuration not given here)	> 100 µM	> 100 µM	> 100 µM	> 100 µM	> 100 µM	> 100 µM	> 100 µM	> 100 µM	> 100 µM	> 100 µM	> 100 µM	> 100 µM	> 100 µM	> 100 µM	
C#CC(O)Cc1ccc(OC)c2occc12 (stereo unspecified)	> 100 µM	> 100 µM	> 100 µM	> 100 µM	> 100 µM	> 100 µM	> 100 µM	> 100 µM	> 100 µM	> 100 µM	> 100 µM	> 100 µM	> 100 µM	> 100 µM	
N#CCN(Cc1ccccc1)[C@@H]1CCC[C@]1(O)C#Cc1ccc2c(c1)OCO2	32.3 µM	55.5 µM	66.7 µM	30.9 µM	42.1 µM	51.8 µM	31.2 µM	30.3 µM	42.3 µM	33.1 µM	30 µM	90.1 µM	40.9 µM	57.2 µM	
COC(=O)CCC(C)[C@H]1CCC2C3C(C[C@H](OC(C)=O)[C@@]21C)[C@@]1(C)CCC2(C[C@H]1C[C@H]3OC(C)=O)OOC1(CCCCC1)OO2 (stereo partly specified)	> 100 µM	18.8 µM	> 100 µM	> 100 µM	> 100 µM	> 100 µM	50.9 µM	> 100 µM	> 100 µM	> 100 µM	> 100 µM	> 100 µM	> 100 µM	> 100 µM	
CC(C)(C)N=c1n(C(C)(C)C)oc(=O)n1-c1ccccc1	> 50 µM	> 50 µM	> 50 µM	> 50 µM	> 50 µM	> 50 µM	> 50 µM	> 50 µM	> 50 µM	> 50 µM	> 50 µM	> 50 µM	> 50 µM	> 50 µM	
Cc1nc(Nc2nc3ccccc3[nH]2)[nH]c(=O)c1CCO	> 100 µM	> 100 µM	> 100 µM	> 94.7 µM	> 100 µM	> 100 µM	> 100 µM	> 84.3 µM	> 65.3 µM	> 100 µM	> 100 µM	> 82.1 µM	> 100 µM	> 81.4 µM	
COc1cccc(C(=O)N[C@@H]2[C@H](O)[C@@H](CO)O[C@H]2n2cnc3c(N)ncnc32)c1	> 100 µM	> 100 µM	> 100 µM	> 100 µM	> 100 µM	> 100 µM	> 100 µM	> 100 µM	> 100 µM	> 100 µM	> 100 µM	> 100 µM	> 100 µM	> 100 µM	
O=C(O)CO/N=C1/C(c2c(O)[nH]c3ccccc23)=Nc2ccccc21	> 100 µM	> 100 µM	> 100 µM	> 100 µM	> 100 µM	> 100 µM	> 100 µM	52.7 µM	> 100 µM	80.1 µM	80 µM	68.1 µM	> 100 µM	> 100 µM	
OC1(c2ccc3ccccc3c2)c2c(c3ccccc3c3ccccc23)C2=NCCN21 (stereo unspecified)	4.17 µM	36.3 µM	> 39.4 µM	5.41 µM	5.1 µM	5.22 µM	13.9 µM	7.68 µM	13.1 µM	> 46.3 µM	> 100 µM	42.8 µM	> 28.4 µM	35.4 µM	
Cn1c(=O)sc2cc(C(=S)N3CCN(c4ccccc4)CC3)ccc21	> 100 µM	> 100 µM	> 100 µM	> 100 µM	> 100 µM	> 100 µM		> 100 µM	61.4 µM	> 100 µM	> 100 µM	> 100 µM	> 100 µM	> 100 µM	
COC(=O)[C@@H]1[C@H](O)CC[C@H]2[C@@]1(C)CC[C@@H](C)[C@]2(COC(C)=O)CC(=O)c1ccoc1	> 50 µM	> 50 µM	> 50 µM	> 50 µM	> 50 µM	> 50 µM	> 50 µM	> 50 µM	> 50 µM	> 50 µM	> 50 µM	> 50 µM	> 50 µM	> 50 µM	

SMILES	TGI (COLO 205 colon)	TGI (EKVX NSCLC)	TGI (HCT-15 colon)	TGI (LOX IMVI melanoma)	TGI (MDA-MB-435)	TGI (NCI/ADR-RES ovarian)	TGI (OVCAR-4 ovarian)	TGI (RXF 393 renal)	TGI (SF-539 CNS)	TGI (SK-MEL-2 melanoma)	TGI (SK-MEL-5 melanoma)	TGI (SK-OV-3 ovarian)	TGI (SR leukemia)	TGI (TK-10 renal)	GI50 (LOX IMVI melanoma)
COC1C(OC(N)=O)C(O)C(Oc2ccc3c(O)c(NC(=O)c4ccc(O)c(CC=C(C)C)c4)c(=O)oc3c2C)OC1(C)C (stereo unspecified)	> 100 µM	> 100 µM	> 100 µM		> 100 µM	> 100 µM		> 100 µM	> 100 µM	> 100 µM	> 100 µM	> 100 µM	> 100 µM		
CCCN(CCC)C(=O)c1c(Cl)c2cccnc2n2c(C)cnc12	> 100 µM	> 100 µM		> 100 µM	85.3 µM	> 100 µM	> 100 µM	> 100 µM	> 100 µM		> 100 µM	> 100 µM	> 100 µM	> 100 µM	
Cc1cn2c(/C=C3/C(=O)Nc4ccccc43)c(C)nc2s1	15.6 µM	> 100 µM	> 100 µM	70.4 µM	0.619 µM	> 100 µM		> 100 µM	7.83 µM	5.57 µM	14.6 µM	25.7 µM	47 µM	> 100 µM	
Cc1ccc(Nc2cn(COCc3ccccc3)c(=O)[nH]c2=O)cc1	> 100 µM	> 100 µM	> 100 µM	> 100 µM	> 100 µM	> 100 µM	> 100 µM	> 100 µM			> 100 µM		> 100 µM		
CC(=O)NC1C(OCc2ccccc2)OC(CO)C(O)C1OCC(=O)N1CCCC1C(=O)NC(CCC(=O)NCCCCCNc1c2ccccc2nc2cccc([N+](=O)[O-])c12)C(N)=O (stereo unspecified)	0.039 µM	0.633 µM	0.0906 µM	0.733 µM	0.033 µM	1.09 µM	3.98 µM	0.0253 µM	0.097 µM	0.0456 µM	0.0386 µM	0.538 µM	5.01 µM	0.762 µM	
Nc1nc(NCCOCP(=O)(O)O)c(N)c(=O)[nH]1	> 100 µM	> 100 µM	> 100 µM	> 100 µM	> 100 µM	> 100 µM	> 100 µM	> 100 µM	> 100 µM	> 100 µM	> 100 µM	> 100 µM	> 100 µM	> 100 µM	
CC(C)(CN)SCc1ccccc1	> 100 µM	> 100 µM	> 100 µM	> 100 µM	> 100 µM	> 100 µM	> 100 µM	> 100 µM	> 100 µM	> 100 µM	> 100 µM	> 100 µM	> 100 µM	> 100 µM	
N#Cc1c(N2CCOCC2)ncn(-c2ccc(Cl)cc2)c1=O	> 100 µM	> 100 µM	> 100 µM	> 100 µM	> 100 µM	> 100 µM			> 100 µM	> 100 µM	> 100 µM	> 100 µM	> 100 µM		
CN(C)C(=O)Oc1ccc(C(=S)Nc2ccccc2)cc1Br	55.3 µM	> 100 µM	> 100 µM	45.8 µM	43.9 µM	63.9 µM	> 100 µM		> 100 µM	71.5 µM	32.2 µM	> 100 µM	63.3 µM		
COc1nc(C)nc2c1ncn2Cc1ccccc1	> 100 µM	> 100 µM	> 100 µM	> 100 µM	> 100 µM	> 100 µM	> 100 µM	> 100 µM	> 100 µM		> 100 µM	> 100 µM	> 100 µM	> 100 µM	
NCCCCCNOCCCN	> 100 µM	> 100 µM	> 100 µM	> 100 µM	> 100 µM	> 100 µM	> 100 µM		> 100 µM	> 100 µM	> 100 µM	> 100 µM	> 100 µM	> 100 µM	
COc1cc2c(cc1OCCCCN1CCN(CCCCOc3cc4c(cc3OC)C(=O)N3CCC[C@H]3C=N4)CC1)N=C[C@@H]1CCCN1C2=O	0.0354 µM	7.85 µM		> 100 µM	0.165 µM	16.5 µM	12 µM	0.507 µM	0.0692 µM	0.175 µM	0.0476 µM	> 100 µM	> 100 µM	0.263 µM	0.0267 µM
CC(Cc1ccc2c(c1)OCO2)N(C)C(=O)C1=CCN(C)CC1 (stereo unspecified)	> 100 µM	> 100 µM	> 100 µM	> 100 µM	> 100 µM	> 100 µM	> 100 µM	> 100 µM		> 100 µM	> 100 µM	> 100 µM	> 100 µM	> 100 µM	
O=C(Nc1ccc(S(=O)(=O)Nc2ncccn2)cc1)c1c2ccccc2nc2ccccc12	> 100 µM	> 100 µM	> 100 µM	> 100 µM	> 100 µM	> 100 µM	> 100 µM		> 100 µM	> 100 µM	> 100 µM	> 100 µM	> 100 µM	> 100 µM	
Cc1cc(C#N)c(Nc2ccccc2[N+](=O)[O-])s1	> 100 µM	97.2 µM	> 100 µM		47.5 µM	53 µM	> 100 µM	47 µM	> 100 µM			> 100 µM	> 100 µM		
CCOC(=O)NC(=S)NC(C)c1ccccc1 (stereo unspecified)	> 100 µM	> 100 µM	> 100 µM		> 100 µM	> 100 µM	> 100 µM	> 100 µM		> 100 µM	> 100 µM	> 100 µM	> 100 µM	> 100 µM	
